Tests used:
Assay in all cases: biochemical
Design in all cases: KINOMEscan competition binding panel (Eurofins DiscoverX), single concentration, % inhibition
Conditions in all cases: read-out: 7 at 1 µM % inhibition
[1] = target: SBK1 (Homo sapiens, UniProt Q52WX2)
Procedure, shortened: (§1)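 Values come from single-concentration (1 µM) profiling in the Eurofins DiscoverX KINOMEscan competition-binding platform, which covers over 400 kinases.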

[2] = target: T1, JAK1(JH2domain-pseudokinase) (Homo sapiens, UniProt P23458)
T1 construct: JH2domain-pseudokinase
Procedure, shortened: as §1

[3] = target: CDK7 (Homo sapiens, UniProt P50613)
Procedure, shortened: as §1

[4] = target: FGFR2 (Homo sapiens, UniProt P21802)
Procedure, shortened: as §1

[5] = target: EPHA2 (Homo sapiens, UniProt P29317)
Procedure, shortened: as §1

[6] = target: ULK2 (Homo sapiens, UniProt Q8IYT8)
Procedure, shortened: as §1

[7] = target: T2, CDK11 (Homo sapiens, UniProt Q9BWU1)
T2 construct: gene CDK19
Procedure, shortened: as §1

[8] = target: T3, ERK8 (Homo sapiens, UniProt Q8TD08)
T3 construct: gene MAPK15
Procedure, shortened: as §1

[9] = target: T4, p38-gamma (Homo sapiens, UniProt P53778)
T4 construct: gene MAPK12
Procedure, shortened: as §1

[10] = target: PIK3CA(E545A) (Homo sapiens, UniProt P42336, E545A)
Procedure, shortened: as §1

[11] = target: PHKG2 (Homo sapiens, UniProt P15735)
Procedure, shortened: as §1

[12] = target: T5, GCN2(Kin.Dom.2,S808G) (Homo sapiens, UniProt Q9P2K8, S808G)
T5 construct: gene EIF2AK4; Kin.Dom.2
Procedure, shortened: as §1

[13] = target: HCK (Homo sapiens, UniProt P08631)
Procedure, shortened: as §1

[14] = target: EPHB1 (Homo sapiens, UniProt P54762)
Procedure, shortened: as §1

[15] = target: TTK (Homo sapiens, UniProt P33981)
Procedure, shortened: as §1

[16] = target: T6, ABL1(F317L)-phosphorylated (Homo sapiens, UniProt P00519, F317L)
T6 construct: phosphorylated
Procedure, shortened: as §1

[17] = target: NLK (Homo sapiens, UniProt Q9UBE8)
Procedure, shortened: as §1

[18] = target: CAMK1D (Homo sapiens, UniProt Q8IU85)
Procedure, shortened: as §1

[19] = target: T7, PRKR (Homo sapiens, UniProt P19525)
T7 construct: gene EIF2AK2
Procedure, shortened: as §1

[20] = target: AKT2 (Homo sapiens, UniProt P31751)
Procedure, shortened: as §1

[21] = target: CSNK1G1 (Homo sapiens, UniProt Q9HCP0)
Procedure, shortened: as §1

[22] = target: T8, ABL1(M351T)-phosphorylated (Homo sapiens, UniProt P00519, M351T)
T8 construct: phosphorylated
Procedure, shortened: as §1

[23] = target: T9, RSK3(Kin.Dom.2-C-terminal) (Homo sapiens, UniProt Q15349)
T9 construct: gene RPS6KA2; Kin.Dom.2-C-terminal
Procedure, shortened: as §1

[24] = target: SYK (Homo sapiens, UniProt P43405)
Procedure, shortened: as §1

Sequence of EPHA2 (P29317 whole entry): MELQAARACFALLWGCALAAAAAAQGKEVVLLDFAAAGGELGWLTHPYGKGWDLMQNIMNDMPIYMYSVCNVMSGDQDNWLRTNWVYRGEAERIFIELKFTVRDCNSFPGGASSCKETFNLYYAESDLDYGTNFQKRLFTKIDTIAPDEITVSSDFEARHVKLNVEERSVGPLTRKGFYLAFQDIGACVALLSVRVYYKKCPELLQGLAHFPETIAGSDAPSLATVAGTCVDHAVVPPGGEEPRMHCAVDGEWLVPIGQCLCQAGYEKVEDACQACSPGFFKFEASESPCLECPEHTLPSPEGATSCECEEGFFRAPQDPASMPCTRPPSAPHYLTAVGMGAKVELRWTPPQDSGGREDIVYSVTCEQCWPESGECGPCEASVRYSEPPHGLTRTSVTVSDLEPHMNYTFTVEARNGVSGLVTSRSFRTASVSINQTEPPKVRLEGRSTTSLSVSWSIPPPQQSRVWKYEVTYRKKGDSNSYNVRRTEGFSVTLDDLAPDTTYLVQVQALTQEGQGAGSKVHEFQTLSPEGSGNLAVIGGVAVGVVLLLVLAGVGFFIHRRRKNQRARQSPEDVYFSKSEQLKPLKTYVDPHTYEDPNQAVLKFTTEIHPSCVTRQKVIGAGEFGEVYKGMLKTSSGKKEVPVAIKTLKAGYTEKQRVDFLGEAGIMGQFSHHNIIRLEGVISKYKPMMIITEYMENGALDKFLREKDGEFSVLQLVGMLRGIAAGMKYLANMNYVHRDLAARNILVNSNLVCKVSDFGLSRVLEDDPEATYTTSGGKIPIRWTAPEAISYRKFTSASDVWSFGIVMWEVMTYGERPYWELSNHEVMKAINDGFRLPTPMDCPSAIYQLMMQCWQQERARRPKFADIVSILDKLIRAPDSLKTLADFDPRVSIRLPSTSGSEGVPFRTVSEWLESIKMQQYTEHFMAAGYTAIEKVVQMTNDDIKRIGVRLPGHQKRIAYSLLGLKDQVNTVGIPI
Sequence of ULK2 (Q8IYT8 whole entry): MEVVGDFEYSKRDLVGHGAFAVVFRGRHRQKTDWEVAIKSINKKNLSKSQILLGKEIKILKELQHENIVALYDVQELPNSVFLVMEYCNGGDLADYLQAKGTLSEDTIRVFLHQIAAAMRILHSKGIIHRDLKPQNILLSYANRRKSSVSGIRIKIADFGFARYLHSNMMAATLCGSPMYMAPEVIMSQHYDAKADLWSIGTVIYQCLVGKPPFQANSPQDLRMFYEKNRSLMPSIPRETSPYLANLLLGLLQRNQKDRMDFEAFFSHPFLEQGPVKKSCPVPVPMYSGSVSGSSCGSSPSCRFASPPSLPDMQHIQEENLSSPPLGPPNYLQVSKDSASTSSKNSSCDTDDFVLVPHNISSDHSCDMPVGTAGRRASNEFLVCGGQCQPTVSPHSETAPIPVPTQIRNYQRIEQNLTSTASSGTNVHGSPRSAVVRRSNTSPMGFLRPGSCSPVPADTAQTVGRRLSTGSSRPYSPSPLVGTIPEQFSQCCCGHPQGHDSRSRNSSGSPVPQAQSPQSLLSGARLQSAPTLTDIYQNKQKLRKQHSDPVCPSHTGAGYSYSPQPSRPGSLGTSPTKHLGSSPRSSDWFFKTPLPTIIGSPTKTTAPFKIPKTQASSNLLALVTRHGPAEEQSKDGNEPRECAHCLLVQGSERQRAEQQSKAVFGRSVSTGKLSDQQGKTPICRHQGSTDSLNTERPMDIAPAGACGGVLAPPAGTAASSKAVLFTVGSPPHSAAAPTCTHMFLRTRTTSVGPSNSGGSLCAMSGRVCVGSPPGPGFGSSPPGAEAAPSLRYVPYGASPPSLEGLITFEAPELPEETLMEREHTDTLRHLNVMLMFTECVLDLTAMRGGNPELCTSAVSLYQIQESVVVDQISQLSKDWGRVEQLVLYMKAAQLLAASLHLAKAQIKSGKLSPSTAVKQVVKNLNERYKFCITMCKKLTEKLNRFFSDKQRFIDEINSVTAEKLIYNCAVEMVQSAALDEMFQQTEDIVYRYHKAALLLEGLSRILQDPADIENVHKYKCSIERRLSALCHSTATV
T5 sequence (Q9P2K8 whole entry S808G): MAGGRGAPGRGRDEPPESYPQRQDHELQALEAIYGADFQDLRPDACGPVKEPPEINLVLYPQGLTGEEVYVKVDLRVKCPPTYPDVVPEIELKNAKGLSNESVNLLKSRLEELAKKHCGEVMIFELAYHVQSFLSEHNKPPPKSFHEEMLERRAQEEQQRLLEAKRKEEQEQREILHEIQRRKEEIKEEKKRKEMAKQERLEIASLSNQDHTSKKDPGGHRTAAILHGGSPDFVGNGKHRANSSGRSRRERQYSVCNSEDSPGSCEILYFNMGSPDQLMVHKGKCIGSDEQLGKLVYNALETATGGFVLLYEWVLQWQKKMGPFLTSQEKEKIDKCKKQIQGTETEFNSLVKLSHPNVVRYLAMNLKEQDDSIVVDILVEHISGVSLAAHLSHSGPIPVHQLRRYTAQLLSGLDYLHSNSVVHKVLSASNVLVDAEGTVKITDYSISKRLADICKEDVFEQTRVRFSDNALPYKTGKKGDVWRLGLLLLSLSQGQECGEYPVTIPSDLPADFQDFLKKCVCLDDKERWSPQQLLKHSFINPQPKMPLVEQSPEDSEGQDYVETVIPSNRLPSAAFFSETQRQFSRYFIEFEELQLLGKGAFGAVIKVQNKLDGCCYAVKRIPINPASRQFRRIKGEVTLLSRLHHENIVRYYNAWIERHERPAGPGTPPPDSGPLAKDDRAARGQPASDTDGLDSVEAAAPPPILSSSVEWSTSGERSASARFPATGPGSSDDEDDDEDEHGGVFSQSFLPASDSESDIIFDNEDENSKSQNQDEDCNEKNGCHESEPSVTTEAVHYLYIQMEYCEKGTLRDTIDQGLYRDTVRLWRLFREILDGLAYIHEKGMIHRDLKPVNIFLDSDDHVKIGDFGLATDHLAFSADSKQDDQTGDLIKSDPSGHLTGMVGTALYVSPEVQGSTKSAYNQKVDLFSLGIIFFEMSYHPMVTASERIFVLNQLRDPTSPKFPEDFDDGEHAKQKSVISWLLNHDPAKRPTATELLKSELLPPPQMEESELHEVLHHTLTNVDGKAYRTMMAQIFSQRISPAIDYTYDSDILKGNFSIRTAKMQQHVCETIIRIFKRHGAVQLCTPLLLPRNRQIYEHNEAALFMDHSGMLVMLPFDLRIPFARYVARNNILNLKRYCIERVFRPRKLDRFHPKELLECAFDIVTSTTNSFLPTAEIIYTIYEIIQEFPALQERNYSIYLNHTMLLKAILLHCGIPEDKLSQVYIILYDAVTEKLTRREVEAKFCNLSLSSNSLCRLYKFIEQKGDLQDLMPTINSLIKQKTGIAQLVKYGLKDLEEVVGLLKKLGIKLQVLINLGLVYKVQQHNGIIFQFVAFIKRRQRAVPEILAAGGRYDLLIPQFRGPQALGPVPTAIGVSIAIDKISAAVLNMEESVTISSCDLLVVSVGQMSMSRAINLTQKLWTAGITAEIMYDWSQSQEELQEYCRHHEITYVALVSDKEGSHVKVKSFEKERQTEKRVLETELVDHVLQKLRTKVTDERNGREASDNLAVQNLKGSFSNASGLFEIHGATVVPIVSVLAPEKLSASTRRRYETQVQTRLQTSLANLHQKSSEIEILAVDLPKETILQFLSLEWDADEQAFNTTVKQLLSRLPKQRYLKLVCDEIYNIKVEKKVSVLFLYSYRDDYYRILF
T2 sequence (Q9BWU1 whole entry): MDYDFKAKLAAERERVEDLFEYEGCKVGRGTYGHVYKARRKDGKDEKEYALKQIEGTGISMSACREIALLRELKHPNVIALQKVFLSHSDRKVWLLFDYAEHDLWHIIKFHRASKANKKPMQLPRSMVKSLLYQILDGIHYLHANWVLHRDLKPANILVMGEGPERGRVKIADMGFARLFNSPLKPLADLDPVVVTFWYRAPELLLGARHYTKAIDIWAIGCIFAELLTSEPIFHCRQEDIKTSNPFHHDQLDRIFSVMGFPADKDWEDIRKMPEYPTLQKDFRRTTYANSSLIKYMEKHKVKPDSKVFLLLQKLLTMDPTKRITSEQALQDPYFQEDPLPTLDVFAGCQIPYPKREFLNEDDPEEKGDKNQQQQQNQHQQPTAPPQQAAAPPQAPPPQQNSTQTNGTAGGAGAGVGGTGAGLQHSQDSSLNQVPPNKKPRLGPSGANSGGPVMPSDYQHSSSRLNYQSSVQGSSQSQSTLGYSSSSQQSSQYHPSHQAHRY
Sequence of CDK7 (P50613 whole entry): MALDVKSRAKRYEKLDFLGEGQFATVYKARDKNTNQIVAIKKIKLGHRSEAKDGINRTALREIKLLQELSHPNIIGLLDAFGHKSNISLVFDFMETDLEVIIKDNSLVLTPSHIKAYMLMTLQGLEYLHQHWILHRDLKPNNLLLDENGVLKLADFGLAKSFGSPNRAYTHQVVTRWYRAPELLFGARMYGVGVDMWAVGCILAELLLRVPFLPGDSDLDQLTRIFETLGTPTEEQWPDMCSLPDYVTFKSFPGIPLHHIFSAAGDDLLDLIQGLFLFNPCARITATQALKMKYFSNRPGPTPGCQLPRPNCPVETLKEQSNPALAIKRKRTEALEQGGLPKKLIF
Sequence of PHKG2 (P15735 whole entry): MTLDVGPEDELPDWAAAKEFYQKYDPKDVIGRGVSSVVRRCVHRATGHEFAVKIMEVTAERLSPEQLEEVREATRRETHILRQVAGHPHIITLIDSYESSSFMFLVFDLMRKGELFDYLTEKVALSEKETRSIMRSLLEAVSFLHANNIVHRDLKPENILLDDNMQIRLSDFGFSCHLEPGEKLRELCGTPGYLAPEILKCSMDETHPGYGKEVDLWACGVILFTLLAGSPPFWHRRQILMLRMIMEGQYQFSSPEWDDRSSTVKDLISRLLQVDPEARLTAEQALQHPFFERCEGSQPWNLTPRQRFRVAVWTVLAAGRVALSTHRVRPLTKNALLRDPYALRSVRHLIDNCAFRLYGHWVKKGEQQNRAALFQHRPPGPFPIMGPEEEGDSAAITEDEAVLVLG

Work on `CNS(=O)(=O)c1ccc(N(C)C)c(Nc2ncnc3cc(OC)c(OC)cc23)c1` [compound 7, 3-((6,7-dimethoxyquinazolin-4-yl)amino)-4-(dimethylamino)-N-methylbenzenesulfonamide] yielded an inhibition at 1 µM [1] of 29%, an inhibition at 1 µM [2] of 20% and an inhibition at 1 µM [3] of 6%. The inhibition at 1 µM [4] was 0%, the inhibition at 1 µM [5] was 0% and the inhibition at 1 µM [6] was 19%. For the same compound, the inhibition at 1 µM [7] was 0%, the inhibition at 1 µM [8] was 13% and the inhibition at 1 µM [9] was 0%. For the same compound, the inhibition at 1 µM [10] was 0%, the inhibition at 1 µM [11] was 0% and the inhibition at 1 µM [12] was 7%. The inhibition at 1 µM [13] was 11%, the inhibition at 1 µM [14] was 0% and the inhibition at 1 µM [15] was 7%. For the same compound, the inhibition at 1 µM [16] was 0%, the inhibition at 1 µM [17] was 24% and the inhibition at 1 µM [18] was 0%. For the same compound, the inhibition at 1 µM [19] was 0%, the inhibition at 1 µM [20] was 0% and the inhibition at 1 µM [21] was 0%. For the same compound, the inhibition at 1 µM [22] was 6%, the inhibition at 1 µM [23] was 0% and the inhibition at 1 µM [24] was 0%.
